Test results: article PMC8389807 (Journal of Medicinal Chemistry, 2021)
Read-outs that look alike come from different tables or passages of the source.

Legend:
[1] = molecular target: gp120 binding of mAb 9305 (Human immunodeficiency virus type 1, UniProt P03377); assay: cell-based; conditions: HIV-1 NL4.3-infected MT-4 cells, flow cytometry
in vitro [2] = conditions: human
HIV-1 (NL4.3) [3] = assay: microbe, parasite or virus in culture; type: cell-based; conditions: Human immunodeficiency virus 1; CXCR4-tropic strain, PBMC; read-out: HIV-1 (NL4.3) EC50
[4] = molecular target: gp120 binding of mAb clone 447-52D (Human immunodeficiency virus type 1, UniProt P03377); assay: Competition with anti-gp120 mAb 447-52D on HIV-1-infected MT-4 cells (flow cytometry); type: cell-based, HIV-1 NL4.3
Description: (§1) We then investigated the putative gp120 binding site for this class of compounds using competition-binding experiments with mAbs directed to different protein regions: (i) human mAb clone 2G12, whose epitope, composed entirely of N-linked glycans, is centered at position N332;[56]
(§2) These tests were carried out in cell culture using CD4^+ MT-4 T cells that express high levels of gp120 on their membrane when they become infected.
anti-mouse mAb). This is background staining or called negative control (NC).
bPositive control. HIV-1 infected cells stained with the first (anti-HIV-1 envelope antibody) and then the
This is the positive control (PC).
Finally, the mannose-specific lectin Hippeastrum hybrid agglutinin

HIV-2 (ROD) = assay: Anti-HIV-2 activity in MT-4 cells (CPE, MTS/PES); type: cell-based; conditions: Human immunodeficiency virus 2, MT4, MT-4 cells; 50% reduction of virus-induced cytopathic effect; read-out: HIV-2 (ROD) EC50
EV-A71 VP1 (S184T) = type: cell-based
[5] = molecular target: gp120 binding of mAb 2G12 (Human immunodeficiency virus type 1, UniProt P03377); assay: cell-based; type: cell-based; conditions: HIV-1 NL4.3-infected MT-4 cells, flow cytometry
[6] = tested on: enterovirus D68 CU70 strain; assay: microbe, parasite or virus in culture; type: cell-based; conditions: Enterovirus D, HeLa Rh host cell
in vitro [7] = conditions: human; remark: listed apart in the source
HIV-1 (Ba-L) = assay: microbe, parasite or virus in culture; type: cell-based; conditions: Human immunodeficiency virus 1, BAL; CCR5-tropic strain, PBMC; read-out: HIV-1 (Ba-L) EC50
[8] = molecular target: gp120 binding of mAb clone 9284 (Human immunodeficiency virus type 1, UniProt P03377); assay: Competition with anti-gp120 mAb 9284 on HIV-1-infected MT-4 cells (flow cytometry); type: cell-based, HIV-1 NL4.3
Description: as §1, §2

[9] = tested on: BrCr Lab Strain of EV-A71; assay: Antiviral activity against the BrCr lab strain of EV-A71 in RD cells (CPE reduction, MTS/PMS); type: cell-based; conditions: Enterovirus A, EVA71, RD, read-out: EC50
HIV-1 (NL4.3) [10] = assay: microbe, parasite or virus in culture; type: cell-based; conditions: Human immunodeficiency virus 1, MT4; MT-4 cells; 50% reduction of virus-induced cytopathic effect
rhinovirus 14 = assay: microbe, parasite or virus in culture; type: cell-based; conditions: Enterovirus; rhinovirus 14, HeLa Rh host cell
[11] = tested on: EV71 genogroup B2 strain 11316; assay: microbe, parasite or virus in culture; type: cell-based; conditions: Enterovirus A, genogroup B2, strain 11316, RD cells
[12] = molecular target: T1, recombinant HIV-1 IIIB gp120 (Human immunodeficiency virus type 1 group M subtype B, UniProt P03375); assay: biochemical; type: binding; conditions: SPR, four replicates
T1 construct: purchased ImmunoDx, Woburn, Massachusetts; host or cells: Chinese hamster ovary cells

gp120-CD4 binding = molecular target: T2, gp120-CD4 binding (Human immunodeficiency virus type 1 group M subtype B, UniProt P03375); assay: biochemical
T2 construct: […]; purchased CD4: Life Technologies Europe, Merelbeke, Belgium; gp120: not restated here (ImmunoDx inferred)

EV-A71 VP1 (P246S) = type: cell-based
[13] = tested on: EV71 genogroup B5 strain TW/70902/08; assay: microbe, parasite or virus in culture; type: cell-based; conditions: Enterovirus A, genogroup B5, strain TW/70902/08, RD cells
EV-A71 VP1 (S184T/P246S) = type: cell-based
rhinovirus 2 = assay: microbe, parasite or virus in culture; type: cell-based; conditions: Enterovirus; rhinovirus 2, HeLa Rh host cell
[14] = tested on: EV71 genogroup C4 strain TW/1956/05; assay: microbe, parasite or virus in culture; type: cell-based; conditions: Enterovirus A, genogroup C4, strain TW/1956/05, RD cells
[15] = tested on: coxsackievirus B3 Nancy strain; assay: microbe, parasite or virus in culture; type: cell-based; conditions: Enterovirus B, Vero A host cell
[16] = tested on: EV71 genogroup C2 strain H08300 461#812; assay: microbe, parasite or virus in culture; type: cell-based; conditions: Enterovirus A, genogroup C2, strain H08300 461#812, RD cells

O=C(CCOCC(COCCC(=O)NC(Cc1c(-c2cc(C(=O)O)cc(C(=O)O)c2)[nH]c2c(-c3cc(C(=O)O)cc(C(=O)O)c3)cccc12)C(=O)O)(COCCC(=O)NC(Cc1c(-c2cc(C(=O)O)cc(C(=O)O)c2)[nH]c2c(-c3cc(C(=O)O)cc(C(=O)O)c3)cccc12)C(=O)O)COCCC(=O)NC(Cc1c(-c2cc(C(=O)O)cc(C(=O)O)c2)[nH]c2c(-c3cc(C(=O)O)cc(C(=O)O)c3)cccc12)C(=O)O)NC(Cc1c(-c2cc(C(=O)O)cc(C(=O)O)c2)[nH]c2c(-c3cc(C(=O)O)cc(C(=O)O)c3)cccc12)C(=O)O (stereo not drawn) [Compound 33]
IC50 [1]: > 100000 nM | CC50 (in vitro [2]): > 100000 nM | EC50 (HIV-1 (NL4.3) [3]): 33 nM | IC50 ([4]; HIV-1 NL4.3-infected MT-4 cells, flow cytometry, average, read-out: 447-52D IC50): 6800 nM | inhibition at 0.16 µM ([4]; MT4, mAb 447-52D, 0.16 µM, Table S1, read-out: % inhibition of antibody binding): 16.9% | inhibition at 0.8 µM ([4]; MT4, mAb 447-52D, 0.8 µM, Table S1, read-out: % inhibition of antibody binding): 23.9% | inhibition at 4 µM ([4]; MT4, mAb 447-52D, 4 µM, Table S1, read-out: % inhibition of antibody binding): 36.5% | inhibition at 20 µM ([4]; MT4, mAb 447-52D, 20 µM, Table S1, read-out: % inhibition of antibody binding): 76.9% | % inhibition of antibody binding ([4]; mAb 447-52D, 0.16 µM, Table S1, listed as AL-518, 0.16 µM): 17% | % inhibition of antibody binding ([4]; mAb 447-52D, 20 µM, Table S1, listed as AL-518, 20 µM): 77% | IC50 ([4]; mAb 447-52D, Table S1, read-out: IC50): 6850 nM | EC50 (HIV-2 (ROD)): ~60 nM | EC50 (EV-A71 VP1 (S184T)): 100 ± 10 nM | 2G12 IC50 [5]: did not prevent the binding | IC50 [5]: > 100000 nM | EC50 [6]: > 50000 nM | CC50 (in vitro [7]): > 100000 nM | EC50 (HIV-1 (Ba-L)): 36 nM | IC50 ([8]; HIV-1 NL4.3-infected MT-4 cells, flow cytometry, average, read-out: 9284 IC50): 3800 nM | inhibition at 0.16 µM ([8]; MT4, mAb 9284, 0.16 µM, Table S2, read-out: % inhibition of antibody binding): 25.1% | inhibition at 0.8 µM ([8]; MT4, mAb 9284, 0.8 µM, Table S2, read-out: % inhibition of antibody binding): 37.9% | inhibition at 4 µM ([8]; MT4, mAb 9284, 4 µM, Table S2, read-out: % inhibition of antibody binding): 51.4% | inhibition at 20 µM ([8]; MT4, mAb 9284, 20 µM, Table S2, read-out: % inhibition of antibody binding): 61.1% | % inhibition of antibody binding ([8]; mAb 9284, 0.16 µM, Table S2, listed as AL-518, 0.16 µM): 25% | % inhibition of antibody binding ([8]; mAb 9284, 20 µM, Table S2, listed as AL-518, 20 µM): 61% | IC50 ([8]; mAb 9284, Table S2, read-out: IC50): 3370 nM | EC50 ([9]; BrCr lab strain, RD cells, 50% reduction of virus-induced CPE): 40 ± 10 nM | EC50 ([9]; BrCr wild type (cross-resistance study)): 30 ± 10 nM | EC50 ([9]; enterovirus panel, enterovirus A71 BrCr strain, RD host cell): 40 ± 7 nM | EC50 ([9]; genogroup A, BrCr, RD cells (clinical isolate panel)): 43 ± 6 nM | EC50 (HIV-1 (NL4.3) [10]): 6 ± 5 nM | EC50 (rhinovirus 14): > 50000 nM | EC50 [11]: 101 ± 11 nM | kd ([12]; 1:1 Langmuir model): 2.45 ± 0.34 ×10^–3 s^–1 | kon ([12]; 1:1 Langmuir model, read-out: ka): 3340 ± 1020 M⁻¹ s⁻¹ | Kd ([12]; apparent KD): 840 ± 340 nM | IC50 (gp120-CD4 binding; SPR, 25 nM gp120, immobilized CD4, read-out: concentration inhibiting 50% of gp120-CD4 binding): 10 to 40 nM | times more potent than AL-471 (gp120-CD4 binding; inhibition of gp120-CD4 binding): at least 16 | EC50 (EV-A71 VP1 (P246S)): 30 ± 10 nM | EC50 [13]: 10 ± 1.5 nM | EC50 (EV-A71 VP1 (S184T/P246S)): 60 ± 40 nM | EC50 (rhinovirus 2): > 50000 nM | EC50 [14]: 11 ± 0.2 nM | EC50 [15]: > 50000 nM | EC50 [16]: 120 ± 6 nM
